Test results reported in patent US20070142396A1, “Treatment of pain with 1-[3-[4-(3-chlorophenyl)-1-piperazinyl]propyl]-5-methoxy-3,4-dihydro-2(1H)-quinolone or salt thereof” (Vela Pharmaceuticals, Inc., priority 2005, published 2007).

Test system: rats with spinal nerve ligature (Chung neuropathic pain model)
Experiment: Chung spinal nerve ligation (L5 and L6) neuropathic pain model, thermal stimulation (Example 2)
Type: in vivo, rat
Conditions: for Paw Withdrawal Latency (s) Lesioned Paw / Paw Withdrawal Latency (s) Non-lesioned Paw: hypersensitivity test after 8 days of twice daily administration
From the text: The Chung neuropathic pain model (Kim and Chung, Pain, 50: 355-363, 1992), employs spinal nerve ligation (SNL) in a rat. Tight ligature of spinal nerves in a rat is associated with hyperalgesia, allodynia and spontaneous pain. Antihyperalgesics reduce these chronic signs of pain hypersensitivity. Thus, the Chung model permits testing of the antihyperalgesic activity of compounds in rats with neuropathic pain. The Chung model constitutes a model for peripheral neuropathic pain in humans, and was employed as follows.
Male Rj: Wistar (Han) rats, weighing 264-369 g at the beginning of the experiment, were obtained from Elevage Janvier, 53940 Le Genest-Saint-Isle, France. The rats were acclimatized to laboratory conditions for at least 5 days before the surgery phase of the experiment. The rats were housed in groups of five in macrolon cages (41×25×14 cm) on wood litter (Litalabo—SPPS, 95100 Argenteuil, France) with free access to food (code 113—SAFE, 91360 Epinay-sur-Orge, France) and water until tested. The animal houses were maintained under artificial lighting (12 hours) between 7:00 AM and 7:00 PM in a controlled ambient temperature of 21±3° C., and with relative humidity maintained at 40-70%.
Rats (264-369 g) were anesthetized with sodium pentobarbital (50 mg/kg i.p.), and an incision at the L4-S2 level was made to expose the left L5 and L6 spinal nerves. A ligature was tied tightly around each nerve. The wound was then sutured. The rats received an i.m. injection of 50,000 IU penicillin G and were allowed to recover. At least 2 weeks after the surgery, when the chronic state was fully installed, rats were submitted consecutively to tactile and thermal stimulation of both the non-lesioned and the lesioned hindpaws.
Doses of OPC-14523 were prepared in stock solutions (weight per volume, W/V), then in dilutions (volume per volume, V/V), as appropriate. The compound was dispersed in 0.5% tragacanth in distilled water. Morphine was dissolved in physiological saline as a reference standard for treatment of pain. The solutions for the test and reference substances were prepared fresh on the day of the experiment.
The vehicle, OPC-14523, and reference (morphine) compound were each administered in a volume of 5 ml/kg body weight. The doses of OPC-14523 were expressed in mg of substance per kg body weight and administered orally (p.o.). The vehicle control was also administered orally. The dose of morphine was expressed in mg of hydrochloride salt per kg body weight and administered i.p.
Each animal was tested at 30 minutes, 1 hour, 2 hours and 4 hours after the administration of a substance. Testing occurred in the morning.
To evaluate chronic drug administration and hypersensitivity induction, animals received a second substance treatment in the afternoon, after acute testing. The animals then received twice-daily substance treatment for an additional 9 days. To test for induction of hypersensitivity, the animals were tested, on the ninth day, 30 minutes before the first substance administration in the morning. The effect of chronic administration was tested on the tenth day 30 minutes, 1 hour, 2 hours and 4 hours after the administration of the substance in the morning.
An apparatus (Ugo Basile, Product reference: 7371, Comerio, Italy) consisted of six individual Plexiglas® boxes (17×11×14 cm) placed upon an elevated glass floor. A rat was placed in the box and left free to habituate for 10 minutes. Then, a mobile infrared radiant source was focused under the non-lesioned and lesioned hindpaws. The paw-withdrawal latencies were automatically recorded. Paw withdrawal interrupts the reflected radiation and switches off the counter and the light source. In order to prevent tissue damage, the test was terminated after 45 seconds if no reaction was noted.
Prior to receiving drug treatment, all animals were submitted to tactile stimulation and assigned to treatment groups, matched on the basis of their pain response. […]

COc1cccc2c1CCC(=O)N2CCCN1CCN(c2cccc(Cl)c2)CC1 [OPC-14523, 1-[3-[4-(3-chlorophenyl)-1-piperazinyl]propyl]-5-methoxy-3,4-dihydro-2(1H)-quinolone]
change of paw-withdrawal latency vs vehicle (acute, 10 mg/kg p.o., 30 minutes, NS): −57%
change of paw-withdrawal latency vs vehicle (acute, 10 mg/kg p.o., lesioned paw, 4 hours): +190%
change of paw-withdrawal latency vs vehicle (acute, 30 mg/kg p.o., lesioned paw, 4 hours): 259%
change of paw-withdrawal latency vs vehicle (acute, 100 mg/kg p.o., lesioned paw, 4 hours): 270%
change of paw-withdrawal latency vs vehicle (acute, 100 mg/kg p.o., non-lesioned paw, p<0.05): −27%
change of paw-withdrawal latency vs vehicle (chronic, 30 mg/kg, lesioned paw, 4 hours, p<0.05): +62%
effect on paw-withdrawal latency (chronic, non-lesioned paw): no effect
Paw Withdrawal Latency (s) Lesioned Paw (10 mg/kg p.o.): 4.5 (p < 0.01) s
Paw Withdrawal Latency (s) Non-lesioned Paw (10 mg/kg p.o.): 43.7 (NS) s
Paw Withdrawal Latency (s) Lesioned Paw (30 mg/kg p.o.): 19.9 (NS) s
Paw Withdrawal Latency (s) Non-lesioned Paw (30 mg/kg p.o.): 37 (NS) s
Paw Withdrawal Latency (s) Lesioned Paw (100 mg/kg p.o.): 22.3 (NS) s
Paw Withdrawal Latency (s) Non-lesioned Paw (100 mg/kg p.o.): 39.1 (NS) s
effect on paw-withdrawal latency vs vehicle control (hypersensitivity test, lesioned paw at other doses, non-lesioned paw at any dose): No effects
change of paw-withdrawal latency vs vehicle (hypersensitivity test, repeated treatment 10 mg/kg p.o., lesioned paw, p<0.01): −67%
